The values that follow come from ChEMBL document CHEMBL1143507, “Molecular-modeling based design, synthesis, and activity of substituted piperidines as gamma-secretase inhibitors” (Bioorg Med Chem Lett, 2005).

Experiment [1] has as its target T1, Amyloid-beta precursor protein (Homo sapiens, UniProt P05067). The experiment can be described thus: In vitro reduction of Swedish NL mutant amyloid precursor protein activity expressed in CHO cells. The class given is functional, cell-based.
Target sequence in this assay (P05067 18-770 limits assumed): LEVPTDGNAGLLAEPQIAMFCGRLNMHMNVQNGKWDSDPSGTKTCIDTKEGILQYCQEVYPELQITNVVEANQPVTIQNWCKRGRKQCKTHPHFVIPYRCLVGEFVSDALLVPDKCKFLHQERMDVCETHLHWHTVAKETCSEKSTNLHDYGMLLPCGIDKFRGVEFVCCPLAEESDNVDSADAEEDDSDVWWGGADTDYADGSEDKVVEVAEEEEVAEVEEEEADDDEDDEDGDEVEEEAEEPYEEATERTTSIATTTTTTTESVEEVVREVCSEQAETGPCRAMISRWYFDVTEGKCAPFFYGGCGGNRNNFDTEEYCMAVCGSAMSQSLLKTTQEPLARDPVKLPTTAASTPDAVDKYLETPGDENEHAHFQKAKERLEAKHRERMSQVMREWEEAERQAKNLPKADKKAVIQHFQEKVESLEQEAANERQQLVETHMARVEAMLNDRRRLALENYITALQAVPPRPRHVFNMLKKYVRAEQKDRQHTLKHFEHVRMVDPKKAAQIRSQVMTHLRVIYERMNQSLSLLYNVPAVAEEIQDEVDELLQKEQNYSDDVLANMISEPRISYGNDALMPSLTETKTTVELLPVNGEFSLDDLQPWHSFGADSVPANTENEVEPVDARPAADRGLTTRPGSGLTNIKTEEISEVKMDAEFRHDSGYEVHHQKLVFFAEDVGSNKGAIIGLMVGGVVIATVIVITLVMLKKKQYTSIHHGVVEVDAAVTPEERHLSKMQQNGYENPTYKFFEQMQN
Experiment [2] concerns the target T1, Amyloid-beta precursor protein. The experiment can be described thus: In vitro elevation of beta C-terminal fragment (Ct-99) in CHO cells expressing mutant Swedish NL human APP. Format: functional, cell-based.
Target sequence in this assay (P05067 18-770 limits assumed): as above
Experiment [3] has the same target. The experiment can be described thus: Percent inhibition of beta amyloid protein 40 activity in ELISA at 100 uM. (ELISA stands for enzyme-linked immunosorbent assay.)
Target sequence in this assay (P05067 whole entry, the tested form may be a part): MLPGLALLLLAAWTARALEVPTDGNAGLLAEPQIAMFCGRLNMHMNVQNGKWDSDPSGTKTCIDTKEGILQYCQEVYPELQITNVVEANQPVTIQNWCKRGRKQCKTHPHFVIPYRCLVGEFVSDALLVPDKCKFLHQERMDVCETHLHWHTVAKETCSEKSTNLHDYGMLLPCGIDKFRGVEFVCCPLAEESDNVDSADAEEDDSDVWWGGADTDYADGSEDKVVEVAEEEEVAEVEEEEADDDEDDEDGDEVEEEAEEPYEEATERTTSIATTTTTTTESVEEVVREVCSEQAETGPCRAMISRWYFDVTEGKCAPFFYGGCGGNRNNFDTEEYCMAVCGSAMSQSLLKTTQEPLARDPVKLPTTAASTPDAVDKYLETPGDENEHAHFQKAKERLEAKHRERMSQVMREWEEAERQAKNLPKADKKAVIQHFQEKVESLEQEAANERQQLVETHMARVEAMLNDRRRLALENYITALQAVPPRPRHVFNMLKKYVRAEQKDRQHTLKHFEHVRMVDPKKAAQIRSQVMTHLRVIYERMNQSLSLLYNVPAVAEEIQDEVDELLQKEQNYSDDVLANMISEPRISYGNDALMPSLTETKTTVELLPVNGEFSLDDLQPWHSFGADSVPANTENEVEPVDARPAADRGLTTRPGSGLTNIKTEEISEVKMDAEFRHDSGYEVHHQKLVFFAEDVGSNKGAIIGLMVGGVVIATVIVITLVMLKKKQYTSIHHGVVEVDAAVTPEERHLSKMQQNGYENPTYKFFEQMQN
Experiment [4] shares this target. Kind of experiment: In vitro effective concentration against beta amyloid protein 42 in ELISA; increase in presence of weak inhibitor.
Target sequence in this assay (P05067 whole entry, the tested form may be a part): as above

The EC50 is the concentration needed to bring the measured effect to its halfway point. In the case of `CCOC(=O)N1CCC(c2ccccc2OC)(S(=O)(=O)c2ccc(Cl)cc2)CC1`, the EC50 was 530 nM in experiment [1] and 640 nM in experiment [2].

The inhibition is the drop in the measured response relative to a control, in per cent. A high value points to a response far below the control. The compound `CCOC(=O)N1CCC(c2ccccc2)(S(=O)(=O)c2ccccc2)CC1` displayed an inhibition in experiment [3] of 84%. Also, the EC50 result in experiment [4] is on record as “Increase”.

Turning to `CCOC(=O)N1CCC(c2ccccc2OC)(S(=O)(=O)c2ccccc2)CC1`, in experiment [4], the EC50 entry is on record as “Increase”.

On to `CCOC(=O)N1CCC(c2ccccc2C)(S(=O)(=O)c2ccccc2)CC1`, for which the EC50 entry in experiment [4] is given as “Increase”.

Turning to `CCOC(=O)N1CCC(c2ccccc2)(S(=O)(=O)c2ccc(OC)cc2)CC1`, the EC50 entry in experiment [4] is “Increase”.

With `CCOC(=O)N1CCC(c2ccccc2OC)(S(=O)(=O)c2ccc(OC)cc2)CC1`, the EC50 entry in experiment [4] is given as “Increase”.

Take `CCOC(=O)N1CCC(c2ccccc2C)(S(=O)(=O)c2ccc(OC)cc2)CC1`: the EC50 result in experiment [4] is listed as “Increase”.
